Measured values as given in patent US5126258A (priority 1988, dated 1992).
“Also recorded” adds a separate entry of the source. Read-outs that look alike come from different tables or passages of the source. *1 amine or outer side, *2 acyl side, *3 side chain or, on linkers, in order; H or OH if unused. Where a SMILES comes first, the peptide text is derived from it. The star is where a group is joined. Glutaryl = O=C(CCCC(=O)[*:2])[*:1]; pNA = O=[N+]([O-])c1ccc(N*)cc1; Cbz = O=C(OCc1ccccc1)*

Tests used:
[1] = tested on: monoclonal receptor NPN 43C9; test: Amide hydrolysis by monoclonal receptor NPN 43C9, kinetics and inhibition; type: biochemical, mouse; conditions: for Ki / nature of inhibition: substrate Compound 28; for Km: printed figure = km × 10^6; for Vmax: figure = Vmax × 10^9; for kcat: printed figure = kcat × 10^4
Description: FIG. 6 is a graph showing a Lineweaver-Burk plot for amide hydrolysis of reactant ligand Compound 28 by monoclonal receptor NPN 43C9 present at 10 uM. Rates were determined as discussed hereinafter. The ordinate is in units of 1/initial velocity (1/v) in units of minutes/moles (M^-1 min) from zero through 10^7. The abscissa is in units of the reciprocal of the concentration of Compound 28 [1/(28)] in micromoles (uM^-1).
FIG. 7 is a graph showing plots of steady-state velocity (V×10^-9M^-1 min) as a function of total NPN 43C9 monoclonal receptor concentration (At ×10^-6 M) in the absence (I=O) and presence (I=44,=88 and =131) of different concentrations of reversible tight-binding inhibitor (Compound 24i). The indicia adjacent to each curve (I=O, I=44, I=88, and I=131) represent the total micromolar (uM) concentrations of that inhibitor. Each data set was obtained at a constant reactant ligand concentration (1600 uM). […] The data obtained were thereafter fit to an equation shown and discussed hereinafter.
FIG. 8 is a graph showing three further Lineweaver-Burk plots for the hydrolysis of Compound 28 by receptor NPN 43C9 present at 8 uM. Initial velocities were calculated as discussed hereinafter, whereas the ordinate and abscissa are as discussed for FIG. 6, albeit the values of the ordinate are from zero to 3×10^7 M^-1 min. In those plots, the uppermost plot ( ) was prepared from data obtained in the presence of 2000 uM Compound 29 as inhibitor, the middle plot ( ) was obtained in the presence of 1000 uM Compound 29 as inhibitor, and the lowest plot ( ) was obtained in the absence of inhibitor.
It was therefore stored at 4 degrees C in buffer containing 150 mM sodium chloride that was removed immediately prior to use by dialysis against 50 mM CHES, 80 uM NaCl at a pH value of 9.0, and at a temperature of 22 degrees C. This receptor was utilized at concentrations of 10 and 8 uM (as an average value determined from a BCA assay and O. D. 280 nm, using a molecular weight of 160,000 daltons for IgG).
Kinetic parameters for hydrolysis of reactant ligand Compound 28 were determined by measuring the initial linear absorbance change at 404 nm, release of p-nitroaniline. Monoclonal receptor concentrations utilized were 10 and 8 uM, as noted previously. Reactions were initiated by admixture of varying aliquots of a 50 or 100 mM stock solution of Compound 28 in DMF, to provide reactant ligand substrate concentrations of 100-1600 uM. Further studies were carried out using a mixed organic solvent containing dimethyl sulfoxide (DMSO) and acetonitrile (CH3 CN) to dissolve the ligand. In those studies, a final concentration of 5 percent (v/v) of organic solvent was utilized with DMSO comprising 0.2-2.4 volume percent of the final concentration and CH3 CN comprising the remainder of the organic solvent.
Transacylation reactions utilizing an amide reactant ligand as substrate have been studied with Compound 28 as the reactant ligand. In these studies, forty-four hybridomas were prepared that secreted forty-four monoclonal receptors that bound to a conjugate of the immunizing hapten and BSA as carrier protein. Of those forty-four receptors, two appeared to catalyze the hydrolysis reaction of Compound 28. One of those two receptors, NPN 43C9, was selected for further study, as is discussed below.
The initial rates of hydrolysis measured as a function of reactant ligand (Compound 28) concentration followed Michaelis-Menten kinetics.
*Parameters in the upper horizontal row were obtained in the presence of
DMF as a Compound 28solubilizing solvent, whereas parameters in the lower
horizontal row were detained in the presence of DMSO/CH3 CN as
Compound 28solubilizing solvent.
To establish the specificity of monoclonal receptor NPN 43C9, the rates of hydrolysis of potential reactant ligands modified in their acyl or aniline portions were studied. […]

[2] = tested on: monoclonal receptor P3 6D4; test: Stoichiometric transacylation reaction of monoclonal receptor P3 6D4 with coumarin ester Compound 5 (fluorescence) and its inhibition/inactivation; type: biochemical, mouse
Description: A Perkin-Elmer LS-5 fluorescence spectrometer was operated at a fixed wavelength, using 355 nanometers (nm) for excitation and measuring the emission at 455 nm. A stock solution of the coumarin ester 5 was prepared in dioxane and was diluted to the desired concentrations in Tris-HCl (50 mM, pH 7) or sodium phosphate (50 mM, pH 4-9).
Reactions were run at 23 degrees C and were initiated by the addition of an aliquot of antibody solution (1 mg/ml) to substrate solutions to provide a final protein concentration of 100 nM. Final fluorescence values were determined by hydrolysis of the substrate with pig liver esterase. The observed reaction rate was corrected for spontaneous hydrolysis. Reaction kinetics were studied by measuring initial rates under pseudo-first order conditions. Active protein concentration was extrapolated from fluorescence values at the end of the reaction. The kinetic parameters were obtained by fitting the data to a hyperbolic curve and from double reciprocal plots. Inhibition constants were determined from the Lineweaver-Burk plot data with at least five inhibitor concentrations. All the data were studied by a least squares analysis.
Antibody preparations were inactivated without introducing fluorescent products by the addition of the activated ester (Compound 8) in dioxane to a solution of the IgG (5 mg/ml) in Tris-HCl (50 mM, pH 6.5) at a ratio of 5 moles of the ester (Compound 8) per mole IgG.
Protein modification was performed in an analogous manner, by the addition of a dioxane solution of the reagent at a known concentration to the antibody. The solution was incubated for 30 minutes before filtration through Sephadex G-25. The activity remaining was compared to control samples. Aliquots of IgG (5 mg/ml) inactivated with the ester (Compound 8) were diluted with four volumes of phosphate buffer (50 mM, pH 4-9, at intervals of 1 pH unit). Any pH change was recorded, and the sample was stored at 4 degrees C for 24 hours.
Initially, the ester was used at a concentration that was about four-fold greater than that of the protein, and the mixture was incubated at pH 7.2 for 10 minutes. Any change in fluorescence above background was noted.
The termination of the reaction is noted by the return of the rate of fluorescence increase to the background level.

[3] = DMF as Compound 28-solubilizing solvent
[4] = DMSO/CH3CN as Compound 28-solubilizing solvent

O=C(O)CCCC(=O)Nc1ccc(CC(=O)Nc2ccccc2[N+](=O)[O-])cc1
substrate acceptance by NPN 43C9 [1]: non-substrates

O=C(O)CCCC(=O)Nc1ccc(CC(=O)Oc2ccc([N+](=O)[O-])cc2)cc1
substrate acceptance by NPN 43C9 [1]: catalytically hydrolyzed

N=C(N)NCCCC(NC(=O)c1ccccc1)C(=O)Nc1ccc([N+](=O)[O-])cc1 (racemic) [reference compound]
substrate acceptance by NPN 43C9 [1]: not reactant ligand substrates

O=C(Cc1ccc(NC(=O)C(F)(F)F)cc1)ON1C(=O)CCC1=O [Compound 6]
inactivation of receptor [2]: specifically combine with the antibodies to produce an inactive product

CC(=O)Nc1ccc(CP(=O)(O)Nc2ccc([N+](=O)[O-])cc2)cc1 [Compound 24i]
calculated maximum number of enzyme binding sites ([1]; detected with inhibitor Compound 24i): 5.1±0.9 | Ki ([1]; infinite reactant ligand concentration, inhibitor binding to receptor in a complex, read-out: inhibition constant kii): 2.5 µM | Ki ([1]; low substrate concentration, inhibitor binding to free receptor, read-out: inhibition constant kis): 10 µM | nature of inhibition [1]: Tight binding inhibition; also recorded: mixed inhibitor

O=C(O)CCCC(=O)Nc1ccc(CC(=O)Nc2ccc([N+](=O)[O-])cc2)cc1 [Compound 28]
rate acceleration / rate enhancement relative to uncatalyzed reaction [1]: 10^5 | substrate acceptance by NPN 43C9 [1]: substrate | kcat/kuncat [1, 3]: 1.5 × 10^5 | Km ([1]; DMF as Compound 28-solubilizing solvent, pH 9.0): 370 µM | Vmax [1, 3]: 8.3 nM/s | kcat [1, 3]: 0.00083 s⁻¹ | kcat/kuncat [1, 4]: 2.5 × 10^5 | Vmax [1, 4]: 7 nM/s | kcat [1, 4]: 0.00133 s⁻¹ | Km [1, 4]: 562 µM | available transition state binding energy ΔΔG ([1]; difference between binding of inhibitor (Ki) and Compound 28 (Km)): -2.2 kcal/mol

O=C(O)CCCC(=O)Nc1ccc(CC(=O)Nc2cccc([N+](=O)[O-])c2)cc1 [Compound 29]
substrate acceptance by NPN 43C9 [1]: lack of receptor-assisted hydrolysis | substrate acceptance by NPN 43C9 ([1]; listed as Compound 28 with m-nitroaniline for p-nitroaniline): non-substrates | nature of inhibition [1]: inhibitor

O=C(O)CN(CCN(CC(=O)O)CC(=O)O)CC(=O)O [EDTA, reference compound]
effect of additive on antibody-enhanced esterolysis of Compound 5 [2]: failure of added EDTA to affect the reaction

CC(C)C[C@H](N)C(=O)Nc1ccc([N+](=O)[O-])cc1 [L-leucine p-nitroanilide, reference compound]
substrate acceptance by NPN 43C9 [1]: not reactant ligand substrates

NCCCC[C@H](N)C(=O)Nc1ccc([N+](=O)[O-])cc1 [L-lysine p-nitroanilide, reference compound]
substrate acceptance by NPN 43C9 [1]: not reactant ligand substrates

O=C(Nc1ccc([N+](=O)[O-])cc1)[C@@H]1CCCN1 [L-proline p-nitroanilide, reference compound]
substrate acceptance by NPN 43C9 [1]: not reactant ligand substrates

CC(C)[C@H](N)C(=O)Nc1ccc([N+](=O)[O-])cc1 [L-valine p-nitroanilide, reference compound]
substrate acceptance by NPN 43C9 [1]: not reactant ligand substrates

CC(C)C[C@H](NC(=O)CNC(=O)CNC(=O)OCc1ccccc1)C(=O)Nc1ccc([N+](=O)[O-])cc1 [N-CBZ-glycyl-glycyl-L-leucine p-nitroanilide, reference compound] (Cbz-Gly-Gly-Leu-pNA)
substrate acceptance by NPN 43C9 [1]: not reactant ligand substrates

N=C(N)NCCC[C@H](NC(=O)OCc1ccccc1)C(=O)Nc1ccc([N+](=O)[O-])cc1 [N-alpha-CBZ-L-arginine p-nitroanilide, reference compound]
substrate acceptance by NPN 43C9 [1]: not reactant ligand substrates

O=C(N[C@@H](Cc1ccc(O)cc1)C(=O)Nc1ccc([N+](=O)[O-])cc1)c1ccccc1 [N-benzoyl-L-tryrosine p-nitroanilide, reference compound]
substrate acceptance by NPN 43C9 [1]: not reactant ligand substrates

O=C(O)CCCC(=O)N[C@@H](Cc1ccccc1)C(=O)Nc1ccc([N+](=O)[O-])cc1 [N-glutaryl-L-phenylalanine p-nitroanilide, reference compound]
substrate acceptance by NPN 43C9 [1]: not reactant ligand substrates

N[C@@H](CSCc1ccccc1)C(=O)Nc1ccc([N+](=O)[O-])cc1 [S-benzyl-L-cysteine p-nitroanilide, reference compound]
substrate acceptance by NPN 43C9 [1]: not reactant ligand substrates

CC(=O)N[C@@H](CC(N)=O)C(=O)Nc1ccc([N+](=O)[O-])cc1 [acetyl-L-asparagine p-nitroanilide, reference compound]
substrate acceptance by NPN 43C9 [1]: not reactant ligand substrates

O=C(O)Cc1ccc(NC(=O)C(F)(F)F)cc1 [carboxylate product of ester hydrolysis]
Ki ([2]; summary, kinetic parameters at low pH values, read-out: Ki (inhibition of antibody esterolysis)): 7 µM

CC(C)C[C@H](NC(=O)[C@H](CCC(=O)O)NC(=O)CCCC(=O)O)C(=O)Nc1ccc([N+](=O)[O-])cc1 [glutaryl-glutamyl-L-leucine p-nitroanilide, reference compound] (Glutaryl-Glu-Leu-pNA)
substrate acceptance by NPN 43C9 [1]: not reactant ligand substrates

CC(=O)Nc1ccc(CP(=O)(O)Nc2ccc([N+](=O)[O-])cc2)cc1 [inhibitor]
nature of inhibition [1]: reversible

CC(=O)Nc1ccc(CC(=O)Oc2ccc3ccc(=O)oc3c2)cc1 [reference compound]
stoichiometric antibody reaction (release of alcohol) [2]: not detected

zinc [reference compound]
effect of additive on antibody-enhanced esterolysis of Compound 5 ([2]; up to 100 micromolar added zinc and picolinic acid, EDTA concentration not given): No effect
